In US20110195950A1, “Organic Compounds” (NOVARTIS AG, priority 2007, published 2011):

Tests used:
[1] = biological target: T1, alpha1 subunit of the GABA-A receptor together with a beta and a gamma subunit (Homo sapiens, UniProt P14867); experiment: GABA-A receptor modulation, voltage-sensitive dye fluorescence assay (alpha1); type: cell-based; settings: transfected eukaryotic cell line; sub-maximal concentration of GABA; fluorescent signal of voltage-sensitive dye
T1 construct: expressed in transfected cells
T1 sequence (P14867 28-456): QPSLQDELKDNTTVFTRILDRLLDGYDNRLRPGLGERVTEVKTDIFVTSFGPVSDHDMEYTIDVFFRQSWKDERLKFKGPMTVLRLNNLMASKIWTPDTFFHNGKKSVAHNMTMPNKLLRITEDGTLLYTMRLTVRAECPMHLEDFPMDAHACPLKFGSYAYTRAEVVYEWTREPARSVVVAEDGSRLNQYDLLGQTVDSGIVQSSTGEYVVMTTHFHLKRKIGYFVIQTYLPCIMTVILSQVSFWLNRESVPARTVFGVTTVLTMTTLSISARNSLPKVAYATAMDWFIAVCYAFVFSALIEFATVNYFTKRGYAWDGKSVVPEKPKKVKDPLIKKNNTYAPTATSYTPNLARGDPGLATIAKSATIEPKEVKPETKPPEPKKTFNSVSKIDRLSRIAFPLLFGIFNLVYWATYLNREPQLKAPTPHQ
T1 sequence (P47870 25-512 partner limits assumed): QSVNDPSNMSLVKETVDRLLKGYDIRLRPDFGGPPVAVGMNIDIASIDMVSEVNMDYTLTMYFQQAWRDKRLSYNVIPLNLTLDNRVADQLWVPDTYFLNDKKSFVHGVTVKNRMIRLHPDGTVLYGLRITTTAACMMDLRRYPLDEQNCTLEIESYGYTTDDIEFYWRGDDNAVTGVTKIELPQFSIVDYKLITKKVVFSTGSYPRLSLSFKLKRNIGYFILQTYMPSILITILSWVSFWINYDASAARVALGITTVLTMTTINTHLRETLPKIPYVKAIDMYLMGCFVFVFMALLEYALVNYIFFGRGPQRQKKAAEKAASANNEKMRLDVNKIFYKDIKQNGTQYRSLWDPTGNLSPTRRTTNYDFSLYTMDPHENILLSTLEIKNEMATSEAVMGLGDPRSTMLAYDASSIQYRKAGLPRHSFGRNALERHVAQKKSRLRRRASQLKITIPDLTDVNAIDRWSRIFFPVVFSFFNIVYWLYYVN
T1 sequence (P18507 40-467 partner limits assumed): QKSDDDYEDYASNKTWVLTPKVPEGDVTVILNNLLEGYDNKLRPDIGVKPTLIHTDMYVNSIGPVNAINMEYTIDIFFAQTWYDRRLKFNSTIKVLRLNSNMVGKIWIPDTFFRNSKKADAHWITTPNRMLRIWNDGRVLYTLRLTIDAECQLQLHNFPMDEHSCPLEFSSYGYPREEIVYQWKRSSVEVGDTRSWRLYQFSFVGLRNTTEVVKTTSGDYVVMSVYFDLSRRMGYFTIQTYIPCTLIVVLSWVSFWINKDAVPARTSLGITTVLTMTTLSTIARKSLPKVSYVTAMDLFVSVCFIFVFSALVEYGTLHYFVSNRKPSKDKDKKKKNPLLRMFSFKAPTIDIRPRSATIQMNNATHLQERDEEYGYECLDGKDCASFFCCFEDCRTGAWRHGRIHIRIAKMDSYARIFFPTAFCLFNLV

[2] = biological target: T2, alpha2 subunit of the GABA-A receptor together with a beta and a gamma subunit (Homo sapiens, UniProt P47869); experiment: GABA-A receptor modulation, voltage-sensitive dye fluorescence assay (alpha2); type: cell-based; settings: transfected eukaryotic cell line; sub-maximal concentration of GABA; fluorescent signal of voltage-sensitive dye
T2 construct: expressed in transfected cells
T2 sequence (P47869 29-451): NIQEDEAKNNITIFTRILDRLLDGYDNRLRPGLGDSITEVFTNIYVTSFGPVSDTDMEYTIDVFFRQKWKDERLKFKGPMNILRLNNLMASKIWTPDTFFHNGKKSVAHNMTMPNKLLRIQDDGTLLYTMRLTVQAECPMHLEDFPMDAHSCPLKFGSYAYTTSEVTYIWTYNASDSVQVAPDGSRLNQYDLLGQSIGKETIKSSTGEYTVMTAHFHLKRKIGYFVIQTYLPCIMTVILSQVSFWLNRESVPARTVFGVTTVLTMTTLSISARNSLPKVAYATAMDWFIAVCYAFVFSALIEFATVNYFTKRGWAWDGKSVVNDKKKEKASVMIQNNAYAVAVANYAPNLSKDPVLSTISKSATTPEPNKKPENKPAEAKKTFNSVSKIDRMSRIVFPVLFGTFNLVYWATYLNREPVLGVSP
T2 sequence (P28472 26-473 partner): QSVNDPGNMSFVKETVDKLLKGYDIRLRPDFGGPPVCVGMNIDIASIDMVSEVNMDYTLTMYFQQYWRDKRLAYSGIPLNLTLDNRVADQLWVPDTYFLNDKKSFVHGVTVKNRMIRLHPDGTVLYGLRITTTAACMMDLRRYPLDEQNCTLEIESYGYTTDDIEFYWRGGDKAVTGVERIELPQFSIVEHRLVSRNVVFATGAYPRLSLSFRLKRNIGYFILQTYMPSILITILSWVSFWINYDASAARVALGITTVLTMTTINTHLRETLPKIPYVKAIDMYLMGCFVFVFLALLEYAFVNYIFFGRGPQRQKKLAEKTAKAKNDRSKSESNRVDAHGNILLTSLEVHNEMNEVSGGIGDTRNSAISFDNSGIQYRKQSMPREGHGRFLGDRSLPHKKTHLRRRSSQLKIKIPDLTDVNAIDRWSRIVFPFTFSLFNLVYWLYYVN
T2 sequence (P18507 40-467 partner limits assumed): T1 sequence (P18507 40-467 partner limits assumed)
Excerpt: GABA-A receptor modulators show in functional assays a positive modulation of GABA-induced signals. This modulation can be determined in vitro, e.g., at recombinant GABA-A receptors expressed in a mammalian cell line, e.g. by measurement of GABA-A receptor induced changes of the trans-membrane voltage, when using a voltage-sensitive dye and a fluorescence detection system (Adkins, C. E., Pillai, G. V., Kerby, J., Bonnert, T. P., Haldon, C., Mckernan, R. M., Gonzalez, J. E., Oades, K., Whiting, P. J. & Simpson, P. B. [2001]. alpha4beta3delta GABA-A receptors characterized by fluorescence resonance energy transfer-derived measurements of membrane potential. J. Biol. Chem., 276, 38934-38939). In this assay, a modulator compound is pre-applied at different concentrations ranging from 0.1 nM to 10 μM to cells expressing GABA-A receptors and loaded with the voltage-sensitive dye, before, or at the same time as, a sub-maximal concentration of GABA (in the range of from 0.1 to 10 μM) is applied to the cells. The fluorescent signal is correlated with the degree of GABA-A receptor channel opening. This allows the quantification of effects induced by the modulator in a functional manner. By expression of different GABA-A receptor subunit combinations, the differential efficacy of a modulator at different GABA-A receptor variants can be tested. […]

Clc1ccc(-n2nc3c4c(ncc3c2OCc2ccccc2Cl)CCCC4)cc1 [Example 1, 3-(2-Chloro-benzyloxy)-2-(4-chloro-phenyl)-6,7,8,9-tetrahydro-2H-pyrazolo[4,3-c]quinoline]
modulation of the GABA-induced response, alpha1 subunit [1]: 37% | modulation of the GABA-induced response, alpha2 subunit [2]: 140%
